{"source": "ChEMBL document CHEMBL1136988", "about": "“1-amino-4-benzylphthalazines as orally bioavailable smoothened antagonists with antitumor activity” (J Med Chem, 2009)", "key": {"Protein smoothened [1]": {"target": "Protein smoothened (Homo sapiens, UniProt Q99835)", "sequence (Q99835 whole entry)": "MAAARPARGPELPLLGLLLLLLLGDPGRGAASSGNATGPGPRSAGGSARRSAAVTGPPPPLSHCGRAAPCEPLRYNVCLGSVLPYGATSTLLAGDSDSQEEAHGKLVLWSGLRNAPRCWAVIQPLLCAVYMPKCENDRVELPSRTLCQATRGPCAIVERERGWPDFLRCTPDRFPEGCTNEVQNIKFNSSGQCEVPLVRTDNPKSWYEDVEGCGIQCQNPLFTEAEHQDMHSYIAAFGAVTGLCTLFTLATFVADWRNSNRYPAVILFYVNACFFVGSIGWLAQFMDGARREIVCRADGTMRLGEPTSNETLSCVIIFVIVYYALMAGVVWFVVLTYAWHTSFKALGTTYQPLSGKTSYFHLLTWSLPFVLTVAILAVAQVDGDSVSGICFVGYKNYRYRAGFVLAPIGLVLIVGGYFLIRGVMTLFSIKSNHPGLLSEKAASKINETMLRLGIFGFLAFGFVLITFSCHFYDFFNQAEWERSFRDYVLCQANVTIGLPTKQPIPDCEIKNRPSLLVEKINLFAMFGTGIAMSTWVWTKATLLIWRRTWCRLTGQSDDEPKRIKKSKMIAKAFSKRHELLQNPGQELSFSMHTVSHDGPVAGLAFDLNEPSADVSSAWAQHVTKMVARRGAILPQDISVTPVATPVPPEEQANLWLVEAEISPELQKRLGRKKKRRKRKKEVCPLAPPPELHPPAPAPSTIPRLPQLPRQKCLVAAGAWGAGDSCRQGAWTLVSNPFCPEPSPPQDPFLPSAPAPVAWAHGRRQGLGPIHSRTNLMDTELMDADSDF", "test": "Displacement of [3H]3-chloro-4,7-difluoro-N-(4-methoxy-3-(pyridin-4-yl)benzyl)-N-(4-(methylamino)cyclohexyl)benzo[b]thiophene-2-carboxamide from human Smoothened receptor expressed in CHO-K1 cells by membrane filter binding assay", "type": "cell-based"}, "Protein smoothened [2]": {"target": "T1, Protein smoothened (Mus musculus, UniProt P56726)", "T1 sequence (P56726 whole entry)": "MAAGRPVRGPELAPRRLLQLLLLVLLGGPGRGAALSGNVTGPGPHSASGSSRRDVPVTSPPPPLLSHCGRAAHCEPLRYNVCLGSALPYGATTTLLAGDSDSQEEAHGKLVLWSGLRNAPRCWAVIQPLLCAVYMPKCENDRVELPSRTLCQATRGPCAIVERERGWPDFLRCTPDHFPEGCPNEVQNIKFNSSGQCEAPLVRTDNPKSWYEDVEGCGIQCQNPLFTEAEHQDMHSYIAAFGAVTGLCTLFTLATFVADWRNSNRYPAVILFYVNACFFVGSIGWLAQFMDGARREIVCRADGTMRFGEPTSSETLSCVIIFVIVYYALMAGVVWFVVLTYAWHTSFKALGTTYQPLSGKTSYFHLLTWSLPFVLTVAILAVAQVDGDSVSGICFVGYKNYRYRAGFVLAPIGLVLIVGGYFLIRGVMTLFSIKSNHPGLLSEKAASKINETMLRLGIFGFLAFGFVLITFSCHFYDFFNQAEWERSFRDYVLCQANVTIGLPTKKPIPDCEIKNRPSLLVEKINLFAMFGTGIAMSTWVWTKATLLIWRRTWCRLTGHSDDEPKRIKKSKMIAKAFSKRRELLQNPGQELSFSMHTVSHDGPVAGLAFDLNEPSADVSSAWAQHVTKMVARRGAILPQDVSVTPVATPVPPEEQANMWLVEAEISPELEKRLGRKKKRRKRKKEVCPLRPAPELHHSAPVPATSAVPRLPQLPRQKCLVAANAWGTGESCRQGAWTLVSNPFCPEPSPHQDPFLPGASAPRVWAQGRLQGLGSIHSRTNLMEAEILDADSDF", "test": "Inhibition of Smoothened receptor in mouse TM3 cells transfected with pTA-8xGli-Luc reporter gene assessed as inhibition of 1 nM 3-chloro-4,7-difluoro-N-(4-methoxy-3-(pyridin-4-yl)benzyl)-N-(4-(methylamino)cyclohexyl)benzo[b]thiophene-2-carboxamide-induced Hedgehog pathway activation by Gli shift assay", "type": "cell-based"}, "Protein smoothened [3]": {"target": "T1, Protein smoothened", "type": "cell-based, TM3", "description": "Inhibition of Smoothened receptor in mouse TM3 cells transfected with pTA-8xGli-Luc reporter gene assessed as inhibition of 25 nM 3-chloro-4,7-difluoro-N-(4-methoxy-3-(pyridin-4-yl)benzyl)-N-(4-(methylamino)cyclohexyl)benzo[b]thiophene-2-carboxamide-induced Hedgehog pathway activation by Gli shift assay"}, "Protein smoothened [4]": {"target": "T1, Protein smoothened", "test": "Displacement of [3H]3-chloro-4,7-difluoro-N-(4-methoxy-3-(pyridin-4-yl)benzyl)-N-(4-(methylamino)cyclohexyl)benzo[b]thiophene-2-carboxamide from mouse Smoothened receptor expressed in CHO-K1 cells by membrane filter binding assay", "type": "cell-based"}}}
{"smiles": "c1ccc(Cc2nnc(N3CCN(c4ccccc4)CC3)c3ccccc23)cc1", "values": [{"measurement": "IC50", "setting": "Protein smoothened [1]", "value": 4240, "unit": "nM"}, {"measurement": "IC50", "setting": "Protein smoothened [2]", "value": 414, "unit": "nM"}, {"measurement": "IC50", "setting": "Protein smoothened [3]", "value": 2250, "unit": "nM"}, {"measurement": "IC50", "setting": "Protein smoothened [4]", "value": 1100, "unit": "nM"}]}
{"smiles": "C[C@@H]1CN(c2nnc(Cc3ccccc3)c3ccccc23)CCN1c1ccc(C#N)cn1", "values": [{"measurement": "IC50", "setting": "Protein smoothened [1]", "value": 34, "unit": "nM"}, {"measurement": "IC50", "setting": "Protein smoothened [2]", "value": 30, "unit": "nM"}, {"measurement": "IC50", "setting": "Protein smoothened [3]", "value": 244, "unit": "nM"}, {"measurement": "IC50", "setting": "Protein smoothened [4]", "value": 17, "unit": "nM"}]}
{"smiles": "FC(F)(F)c1ccc(N2CCN(c3nnc(Cc4ccccc4)c4occc34)CC2)nc1", "values": [{"measurement": "IC50", "setting": "Protein smoothened [1]", "value": 230, "unit": "nM"}, {"measurement": "IC50", "setting": "Protein smoothened [2]", "value": 212, "unit": "nM"}, {"measurement": "IC50", "setting": "Protein smoothened [3]", "value": 2560, "unit": "nM"}, {"measurement": "IC50", "setting": "Protein smoothened [4]", "value": 139, "unit": "nM"}]}
{"smiles": "N#Cc1ccc(N2CCN(c3nnc(Cc4ccccc4)c4ccccc34)CC2)nc1", "values": [{"measurement": "IC50", "setting": "Protein smoothened [1]", "value": 112, "unit": "nM"}, {"measurement": "IC50", "setting": "Protein smoothened [2]", "value": 69, "unit": "nM"}, {"measurement": "IC50", "setting": "Protein smoothened [3]", "value": 821, "unit": "nM"}, {"measurement": "IC50", "setting": "Protein smoothened [4]", "value": 71, "unit": "nM"}]}
{"smiles": "O=C(O)c1ccc(N2CCN(c3nnc(Cc4ccccc4)c4ccccc34)CC2)nc1", "values": [{"measurement": "IC50", "setting": "Protein smoothened [1]", "value": 2260, "unit": "nM"}, {"measurement": "IC50", "setting": "Protein smoothened [2]", "value": 2670, "unit": "nM"}, {"measurement": "IC50", "setting": "Protein smoothened [3]", "value": "> 5000", "unit": "nM"}, {"measurement": "IC50", "setting": "Protein smoothened [4]", "value": 1640, "unit": "nM"}]}
{"smiles": "NS(=O)(=O)c1ccc(N2CCN(c3nnc(Cc4ccccc4)c4ccccc34)CC2)nc1", "values": [{"measurement": "IC50", "setting": "Protein smoothened [1]", "value": 306, "unit": "nM"}, {"measurement": "IC50", "setting": "Protein smoothened [2]", "value": 104, "unit": "nM"}, {"measurement": "IC50", "setting": "Protein smoothened [3]", "value": 919, "unit": "nM"}, {"measurement": "IC50", "setting": "Protein smoothened [4]", "value": 90, "unit": "nM"}]}
{"smiles": "N#Cc1ccc(N2CCN(c3nnc(Cc4ccc(C(F)(F)F)cc4)c4ccccc34)CC2)nc1", "values": [{"measurement": "IC50", "setting": "Protein smoothened [1]", "value": 185, "unit": "nM"}, {"measurement": "IC50", "setting": "Protein smoothened [2]", "value": 366, "unit": "nM"}, {"measurement": "IC50", "setting": "Protein smoothened [3]", "value": 1240, "unit": "nM"}, {"measurement": "IC50", "setting": "Protein smoothened [4]", "value": 226, "unit": "nM"}]}
{"smiles": "COC(=O)c1ccc(Cc2nnc(N3CCN(c4ccc(C#N)cn4)CC3)c3ccccc23)cc1", "values": [{"measurement": "IC50", "setting": "Protein smoothened [1]", "value": 2930, "unit": "nM"}, {"measurement": "IC50", "setting": "Protein smoothened [2]", "value": 265, "unit": "nM"}, {"measurement": "IC50", "setting": "Protein smoothened [3]", "value": "> 5000", "unit": "nM"}, {"measurement": "IC50", "setting": "Protein smoothened [4]", "value": 165, "unit": "nM"}]}
{"smiles": "N#Cc1ccc(N2CCN(c3cnc(Cc4ccccc4)c4ccccc34)CC2)nc1", "values": [{"measurement": "IC50", "setting": "Protein smoothened [1]", "value": "> 5000", "unit": "nM"}, {"measurement": "IC50", "setting": "Protein smoothened [2]", "value": 910, "unit": "nM"}, {"measurement": "IC50", "setting": "Protein smoothened [3]", "value": 2500, "unit": "nM"}, {"measurement": "IC50", "setting": "Protein smoothened [4]", "value": "> 5000", "unit": "nM"}]}
{"smiles": "c1ccc(N2CCN(c3nnc(Cc4ccncc4)c4ccccc34)CC2)nc1", "values": [{"measurement": "IC50", "setting": "Protein smoothened [1]", "value": "> 5000", "unit": "nM"}, {"measurement": "IC50", "setting": "Protein smoothened [2]", "value": 690, "unit": "nM"}, {"measurement": "IC50", "setting": "Protein smoothened [3]", "value": 4490, "unit": "nM"}, {"measurement": "IC50", "setting": "Protein smoothened [4]", "value": 3690, "unit": "nM"}]}
{"smiles": "OC1(c2ccc(N3CCN(c4nnc(Cc5ccccc5)c5ccccc45)CC3)nc2)CC1", "values": [{"measurement": "IC50", "setting": "Protein smoothened [1]", "value": 21, "unit": "nM"}, {"measurement": "IC50", "setting": "Protein smoothened [2]", "value": 55, "unit": "nM"}, {"measurement": "IC50", "setting": "Protein smoothened [3]", "value": 345, "unit": "nM"}, {"measurement": "IC50", "setting": "Protein smoothened [4]", "value": 10, "unit": "nM"}]}
{"smiles": "N#Cc1ccc(N2CCC(c3cn(Cc4ccccc4)c4ccccc34)CC2)nc1", "values": [{"measurement": "IC50", "setting": "Protein smoothened [1]", "value": 401, "unit": "nM"}, {"measurement": "IC50", "setting": "Protein smoothened [2]", "value": 382, "unit": "nM"}, {"measurement": "IC50", "setting": "Protein smoothened [3]", "value": 1510, "unit": "nM"}, {"measurement": "IC50", "setting": "Protein smoothened [4]", "value": 386, "unit": "nM"}]}
{"smiles": "N#Cc1ccc(N2CCN(c3nnc(Cc4ccc(C(=O)O)cc4)c4ccccc34)CC2)nc1", "values": [{"measurement": "IC50", "setting": "Protein smoothened [1]", "value": "> 5000", "unit": "nM"}, {"measurement": "IC50", "setting": "Protein smoothened [2]", "value": "> 5000", "unit": "nM"}, {"measurement": "IC50", "setting": "Protein smoothened [3]", "value": "> 5000", "unit": "nM"}, {"measurement": "IC50", "setting": "Protein smoothened [4]", "value": "> 5000", "unit": "nM"}]}
{"smiles": "CC(C)(N)c1ccc(N2CCN(c3nnc(Cc4ccccc4)c4ccccc34)CC2)nc1", "values": [{"measurement": "IC50", "setting": "Protein smoothened [1]", "value": 15, "unit": "nM"}, {"measurement": "IC50", "setting": "Protein smoothened [2]", "value": 1.3, "unit": "nM"}, {"measurement": "IC50", "setting": "Protein smoothened [3]", "value": 42, "unit": "nM"}, {"measurement": "IC50", "setting": "Protein smoothened [4]", "value": 6, "unit": "nM"}]}
{"smiles": "CN(C)Cc1ccc(N2CCN(c3nnc(Cc4ccccc4)c4ccccc34)CC2)nc1", "values": [{"measurement": "IC50", "setting": "Protein smoothened [1]", "value": 654, "unit": "nM"}, {"measurement": "IC50", "setting": "Protein smoothened [2]", "value": 14, "unit": "nM"}, {"measurement": "IC50", "setting": "Protein smoothened [3]", "value": 246, "unit": "nM"}, {"measurement": "IC50", "setting": "Protein smoothened [4]", "value": 287, "unit": "nM"}]}
{"smiles": "CC(=O)NCc1ccc(N2CCN(c3nnc(Cc4ccccc4)c4ccccc34)CC2)nc1", "values": [{"measurement": "IC50", "setting": "Protein smoothened [1]", "value": 196, "unit": "nM"}, {"measurement": "IC50", "setting": "Protein smoothened [2]", "value": 35, "unit": "nM"}, {"measurement": "IC50", "setting": "Protein smoothened [3]", "value": 327, "unit": "nM"}, {"measurement": "IC50", "setting": "Protein smoothened [4]", "value": 96, "unit": "nM"}]}
{"smiles": "N#Cc1ccc(N2CCCN(c3nnc(Cc4ccccc4)c4ccccc34)CC2)nc1", "values": [{"measurement": "IC50", "setting": "Protein smoothened [1]", "value": 391, "unit": "nM"}, {"measurement": "IC50", "setting": "Protein smoothened [2]", "value": 210, "unit": "nM"}, {"measurement": "IC50", "setting": "Protein smoothened [3]", "value": 1630, "unit": "nM"}, {"measurement": "IC50", "setting": "Protein smoothened [4]", "value": 153, "unit": "nM"}]}
